Experimental data from patent US20080220416A1, “Compositions for Inhibiting Cell Growth and Inducing Apoptosis in Cancer Cells and Methods of Use Thereof” (THE BOARD OF TRUSTEES OF THE UNIVERSITY OF ILLINOI, priority 2004, published 2008).
Peptide text beside a SMILES is read from it. * marks the point of attachment. Cbz = O=C(OCc1ccccc1)*

Legend:
melanoma cell lines = assay: Proteasome inhibitors, apoptosis of melanoma cell lines (Annexin V FITC flow cytometry); type: cell-based, human
Method: The proteasome inhibitors lactacystin, MG-132, and bortezomib were evaluated for the ability to induce apoptosis in malignant melanoma cell lines (n=3) including an early passage line, RJ002L. MG-132 was obtained from Calbiochem (La Jolla, Calif.) and dissolved in DMSO. Lactacystin was purchased from Sigma Chemical Co. (St. Louis, Mo.) and dissolved in PBS. Bortezomib was obtained from a pharmacy as VELCADE (bortezomib) for Injection from a single use vial for intravenous use only (Millennium Pharmaceuticals, Cambridge, Mass.). A cell line with wild-type p53 (RJ002L) and two melanoma cell lines with mutant p53 alleles (C8161 and MUM2B) were included in this study. Two additional melanoma cell lines were also used: cutaneous SK-MeI-28 cells and primary, early passage MG012 cells. In addition, five normal melanocyte culture cell lines (MC-005, MC-006, MC-008, MC-009 and MC-011) were examined. Prior to testing, the melanoma cell lines were maintained in RPMI supplemented with 10% FBS. Normal human melanocytes were isolated from neonatal foreskins as previously described (Qin J et al., 2004, Mol Cancer Ther 3:895-902, 2004) and cultured with medium 154 containing growth supplements (Cascade Biologics, Portland, Oreg.).
To assess the effect of proteasome inhibitors on the cell lines, the cells were grown in suitable culture media as described above. Highly proliferating cells (i.e., cells that had reached approximately 30% confluency) were exposed to the inhibitors as described below. The culture media was replenished with media containing proteasome inhibitors at various concentrations and the cells were incubated for 24 hours prior to harvesting the cells for further analysis.
Following treatment with the proteasome inhibitors, the melanoma and melanocyte cell cultures were assayed for apoptotic cells using the APO TARGET Annexin V FITC staining kit (Biosource, Camarillo, Calif.) according to the manufacturer's instructions followed by flow cytometric analysis using FACScaliber (Becton Dickinson, Palo Alto, Calif.) as described in Qin, J. et al., 2001, Nat Med 7: 385-386. In some cases, cell cycle and apoptosis analysis was measured using propidium iodide staining and flow cytometry as described. Cells with DNA content less than the G0 amount of untreated cells were considered apoptotic. For cell analysis, DNA histograms were analyzed using MultiCycle for Windows (Phoenix Flow Systems, San Diego, Calif.) as described in Denning, M. F. et al., 1998, J Biol Chem 273: 29995-30002.

NOXA = assay: Western blot of NOXA after proteasome inhibitors in melanoma cells; type: cell-based, human; conditions: RJ002L, C8161, MUM2B, 18 hrs
Text: A panel of melanoma cells were used to assess the effect of bortezomib on pro-apoptotic proteins. RJ002L, C8161, MUM2B and SK-MeI-28 melanoma cells, as well as two normal melanocyte cultures (MC-010 and MC-012) were examined. Prior to testing, the RJ002L melanoma cell lines were maintained in RPMI supplemented with 10% FBS. Late passage melanoma cell lines (C8161, MUM2B and SK-Me1028) were utilized as previously described (Welch D et al., 1991, Int J Cancer 47:227-237; Bittner M et al., 2000, Nature 406:536-540). Normal human melanocytes were isolated from neonatal foreskins and cultured as previously described (Qin J et al., 2004, Mol Cancer Ther 3:895-902). Proliferating cells were examined by Western blot analysis before and after 18 hrs of exposure to bortezomib (1 μM). Antibodies were obtained as follows: Bad (SC-8044), Bcl-2 (SC-7382), Bcl-xL (SC-634), Mcl-1 (SC-819), Bak (SC-832) from Santa Cruz Biotechnology (Santa Cruz, Calif.); NOXA (OP180) from Calbiochem; Bid, Bim and PUMA from Cell Signaling (Beverly, Mass.); BAX from Upstate (Charlottesville, Va.); and β-actin from ICN (Irvine, Calif.). For the Western blot analysis, whole cell extracts were prepared as previously described (Denning M et al., 1998, J Biol Chem 273:29995-30002). Briefly, cells were harvested by scraping monolayers and washed with PBS. Cell pellets were resuspended in CHAPS buffers containing a protease inhibitor cocktail. Extracts were vigorously shaken at 4° C. for 15 min followed by centrifugation. Supernatants were collected and protein concentration determined using Bio-Rad reagent. Thirty to 50 microgram protein samples were resolved by SDS-polyacrylamide gel electrophoresis and transferred to polyvinylidene difluoride membrane by electroblotting. Membranes were probed with the various primary antibodies overnight at 4° C., followed by detection using ECL reagents (Amersham Pharmacia Biotech, Piscataway, N.J.) according to manufacturer's instructions.
Two other proteasome inhibitors, lactasytsin and MG-132, were tested for the ability to induce NOXA in melanoma cells and melanocytes. […]

SMILES	apoptotic response to increasing concentrations (melanoma cell lines; RJ002L, MG012, C8161, MUM2B, SK-MeI-28, 1-10 μM, 24 hrs)	NOXA induction (NOXA; 1 μM or 10 μM)	concentration triggering significant apoptotic response (p<0.05) (melanoma cell lines; all melanoma cell lines examined)	dead cells (melanoma cell lines; all melanoma cell lines tested, 10 μM, 24 hrs continuous exposure)	induction of BH3-only proteins (NOXA; SK-MeI-28, 1 μM)
CC(C)C[C@@H](C=O)NC(=O)[C@H](CC(C)C)NC(=O)[C@H](CC(C)C)NC(=O)OCc1ccccc1 [MG-132, benzoxycarbonyl-Leucyl-Leucyl-Leucyl-aldehyde] (Cbz-Leu-Leu-Leu-aldehyde)	significantly enhanced apoptotic responses	induced high NOXA levels			
CC(C)C[C@H](NC(=O)[C@H](Cc1ccccc1)NC(=O)c1cnccn1)B(O)O [bortezomib, N-(2-pyrazine)carbonyl-L-phenylalanine-L-leucine boronic acid]			≥ 0.1 µM	30-70%	only NOXA was consistently induced in all four melanoma cells
